US8987193B2, “Nisin derivatives and the use thereof” (University College Cork—National University of Ireland, Cork, priority 2008, dated 2015)
Like-named read-outs stand apart in the source and are kept apart here. Ends that are not written are not given here.

Tests used:
[1] = tested on: Staph. aureus DPC5245; assay: Deferred antagonism assay; type: cell-based; details: producing strain; diameter of zone minus 5 mm; average of duplicates; St. aureus DPC5245
Method in brief: (§1)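 Producer strains replicated on GM17 agar, grown overnight, then overlaid with soft agar (0.75% w/v) seeded with indicator strain. Zone size = clearing diameter minus 5 mm growth diameter, relative to NZ9800 pCI372nisA control; mean of duplicates.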

[2] = tested on: Staph. aureus ST528 (MRSA); assay: Deferred antagonism assay; type: cell-based; details: producing strain, diameter of zone minus diameter of bacterial growth (5 mm), average of duplicates
Method in brief: as §1

[3] = tested on: Strep. agalactiae ATCC13813; assay: Deferred antagonism assay; type: cell-based; details: producing strain, diameter of zone minus 5 mm, average of duplicates
[4] = tested on: L. monocytogenes CBC1; assay: Deferred antagonism assay; type: cell-based, Listeria monocytogenes; parameters: key: + = Enhanced bioactivity relative to control; − = Bioactivity equal to or less than control; NA = no activity evident; details: producing strain; L. mono CBC1
Method in brief: (§2)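 Well-diffusion testing of purified nisin variants in 0.005% acetic acid, serially diluted, 37° C overnight; AU/ml = reciprocal of last dilution with definite zone × 20. Deferred antagonism: overnight GM17 colonies overlaid with seeded soft agar (0.75%); zone = clearing diameter minus 5 mm.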

[5] = tested on: L. monocytogenes CBC2; assay: Deferred antagonism assay; type: cell-based, Listeria monocytogenes; parameters: key: + = Enhanced bioactivity relative to control; − = Bioactivity equal to or less than control; NA = no activity evident; details: producing strain; L. mono CBC2
Method in brief: as §2

[6] = tested on: L. monocytogenes CBC3; assay: Deferred antagonism assay; type: cell-based, Listeria monocytogenes; parameters: key: + = Enhanced bioactivity relative to control; − = Bioactivity equal to or less than control; NA = no activity evident; details: producing strain; L. mono CBC3
Method in brief: as §2

[7] = tested on: L. lactis CBC7; assay: Deferred antagonism assay; type: cell-based; parameters: key: + = Enhanced bioactivity relative to control; − = Bioactivity equal to or less than control; NA = no activity evident; details: producing strain
Method in brief: as §2

[8] = tested on: L. lactis CBC8; assay: Deferred antagonism assay; type: cell-based; parameters: key: + = Enhanced bioactivity relative to control; − = Bioactivity equal to or less than control; NA = no activity evident; details: producing strain
Method in brief: as §2

[9] = tested on: S. aureus CBC4; assay: Deferred antagonism assay; type: cell-based; parameters: key: + = Enhanced bioactivity relative to control; − = Bioactivity equal to or less than control; NA = no activity evident; details: producing strain
Method in brief: as §2

[10] = tested on: C. sporogenes CBC5; assay: Deferred antagonism assay; type: cell-based, Clostridium sporogenes; parameters: key: + = Enhanced bioactivity relative to control; − = Bioactivity equal to or less than control; NA = no activity evident; details: producing strain
[11] = tested on: L. plantarum CBC6; assay: Deferred antagonism assay; type: cell-based, Lactobacillus plantarum; parameters: key: + = Enhanced bioactivity relative to control; − = Bioactivity equal to or less than control; NA = no activity evident; details: producing strain
Method in brief: as §2

[12] = tested on: indicator strains; assay: Deferred antagonism assays, various indicator strains (summary); type: cell-based; details: for Strain(s) against which the derivative (producing strain) displays enhanced bioactivity: relative to nisin A-producing control, value = strains listed; for bioactivity of the producing strain, in words: in general / against the strains tested
Method in brief: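 Producer strains were replicated on GM17 or GM17 x-gal agar, grown overnight, then overlaid with GM17, BHI, TS or MH soft agar (0.75% w/v) seeded with the indicator strain. Zone size was taken as the clearing diameter minus the diameter of bacterial growth (5 mm).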

[13] = tested on: Strep. agalactiae ATCC13813; assay: Deferred antagonism assay; type: cell-based; details: chromosomal replacement strains; Strep. agalactiae ATCC 13813
[14] = tested on: L. lactis HP; assay: Activity of concentrated peptide preparations; type: cell-based; details: data not shown
Excerpt: (§3) The most common post-translational modifications of lantibiotics involve the dehydration of serine to dehydroalanine (Dha) and of threonine to dehydrobutyrine (Dhb). These dehydrated residues interact with cysteine to form intramolecular lanthionine and β-methyllanthionine bridges, respectively.

[15] = tested on: Staph. aureus DPC5245; assay: Activity of concentrated peptide preparations; type: cell-based; details: data not shown
Excerpt: as §3

[16] = tested on: Strep. agalactiae ATCC13813; assay: Activity of concentrated peptide preparations; type: cell-based; details: data not shown
Excerpt: as §3

[17] = tested on: Strep. pneumoniae; details: cited from earlier work

Row | Substance | zone size relative to that of the NZ9800 pCI372nisA control [1] [%] | zone size relative to that of the NZ9800 pCI372nisA control [2] [%] | zone size relative to that of the NZ9800 pCI372nisA control [3] [%] | Bioactivity relative to control [4] | Bioactivity relative to control [5] | Bioactivity relative to control [6] | Bioactivity relative to control [7] | Bioactivity relative to control [8] | Bioactivity relative to control [9] | Bioactivity relative to control [10] | Bioactivity relative to control [11] | Strain(s) against which the derivative (producing strain) displays enhanced bioactivity [12] | bacteriocin production/bioactivity relative to L. lactis NZ9700 [13] | activity relative to the wild-type peptide [14] | activity relative to the wild-type peptide [15] | activity relative to the wild-type peptide [16] | bioactivity of the producing strain, in words [12] | minimum inhibitory concentration (MIC) ([17]; penicillin-susceptible strain before serial exposure to nisin) [µg/mL] | minimum inhibitory concentration (MIC) ([17]; stable nisin-resistant mutants after serial exposure to nisin (1 mg/L)) [µg/mL]
1 | NisinA K22S (ITSISLCTPGCKTGALMGCNMSTATCHCSIHVSK; not fully specified; also: lantibiotic nisin: dehydrated residues and thioether rings not placed; UniProt P13068 24-57, looked up, variant K22S) [nisin A derivative, hinge substitution K22S] | 124 | 154 | 142 | − | + | − | − | + | − | − | − | Strep. agalactiae ATCC13813, Staph. aureus ST528 and Staph. aureus DPC5245 and L. monocytogenes CBC2 and CBC8 and L. lactis CBC8 and L. monocytogenes CBC2, L. lactis CBC8, S. aureus ST528 | enhanced |  |  |  |  |  | 
2 | M21C: nisin A derivative, hinge substitution M21C (ITSISLCTPGCKTGALMGCNCKTATCHCSIHVSK; cysteine pairing not given here; also: lantibiotic nisin-A; UniProt P13068 24-57, looked up, variant M21C) | 0 | 0 | 0 | − | − | − | − | − | − | − | − |  |  | drastically reduced | undetectable | undetectable |  |  | 
3 | NisinA K22M (ITSISLCTPGCKTGALMGCNMMTATCHCSIHVSK; cysteine pairing not given here; also: lantibiotic nisin-A; UniProt P13068 24-57, looked up, variant K22M) [nisin A derivative, hinge substitution K22M] | 79.5 | 77 | 104 | − | − | − | − | + | − | − | − | L. lactis CBC8 |  |  |  |  | retention of relatively high levels of bioactivity |  | 
4 | M21E: nisin A derivative, hinge substitution M21E (ITSISLCTPGCKTGALMGCNEKTATCHCSIHVSK; cysteine pairing not given here; also: lantibiotic nisin-A; UniProt P13068 24-57, looked up, variant M21E) | 0 | 0 | 0 | − | − | − | − | − | − | − | − |  |  |  |  |  | loss of bioactivity |  | 
5 | NisinA N20H (ITSISLCTPGCKTGALMGCHMKTATCHCSIHVSK; not fully specified; also: lantibiotic nisin: dehydrated residues and thioether rings not placed; UniProt P13068 24-57, looked up, variant N20H) [nisin A derivative, hinge substitution N20H] | 95 | 74.5 | 59.5 | − | − | + | − | − | + | + | − | L. monocytogenes CBC3, S. aureus CBC4 and C. sporogenes CBC5 |  |  |  |  |  |  | 
6 | nisin |  |  |  |  |  |  |  |  |  |  |  |  |  |  |  |  |  | 0.4 | 6.4
7 | NisinA N20S (ITSISLCTPGCKTGALMGCSMKTATCHCSIHVSK; not fully specified; also: lantibiotic nisin: dehydrated residues and thioether rings not placed; UniProt P13068 24-57, looked up, variant N20S) [nisin A derivative, hinge substitution N20S] | 87.5 | 83.5 | 72 | − | + | − | − | − | + | + | − | L. monocytogenes CBC2, Staph. aureus CBC4 and C. sporogenes CBC5 and L. monocytogenes CBC2, S. aureus CBC4 and L. monocytogenes CBC2, S. aureus CBC4, C. sporogenes and CBC5 |  |  |  |  |  |  | 
8 | N20C: nisin A derivative, hinge substitution N20C (ITSISLCTPGCKTGALMGCCMKTATCHCSIHVSK; cysteine pairing not given here; also: lantibiotic nisin-A; UniProt P13068 24-57, looked up, variant N20C) | 0 | 0 | 0 |  |  |  |  |  |  |  |  |  |  | drastically reduced | undetectable | undetectable |  |  | 
9 | NisinA K22V | 113 | 107 | 126 | − | + | − | − | + | − | − | − | L. monocytogenes CBC2 and L. lactis CBC8 |  |  |  |  |  |  | 
